Reference: the NIST ThermoML archive (doi:10.1016/j.fluid.2009.11.030)

Test: excess molar enthalpy (molar enthalpy of mixing); xn = mol fraction of the nth substance listed
Settings: 101.3 kPa, Liquid, Isothermal microcalorimeter

CCOC(=O)CC(=O)OCC [diethyl 1,3-propanedioate] + CC(C)CO
excess molar enthalpy [kcal/mol]
Settings	288.15 K	298.15 K	313.15 K	328.15 K	338.15 K	348.15 K
x1 = 0.0502	0.146	0.146	0.165	0.168	0.166	0.159
x1 = 0.0983	0.252	0.265	0.293	0.3	0.298	0.296
x1 = 0.1494	0.3339	0.3583	0.396	0.4001	0.4065	0.4054
x1 = 0.2006	0.4018	0.4238	0.4785	0.4986	0.4993	0.4947
x1 = 0.2484	0.4517	0.4907	0.5428	0.5531	0.5588	0.5578
x1 = 0.2989	0.4924	0.537	0.588	0.613	0.6095	0.6121
x1 = 0.3486	0.5217	0.5636	0.6226	0.6508	0.6477	0.6456
x1 = 0.3972	0.5413	0.5887	0.6475	0.662	0.6687	0.6649
x1 = 0.4484	0.5531	0.5985	0.6542	0.6752	0.674	0.6721
x1 = 0.4981	0.5598	0.6076	0.6513	0.6718	0.6699	0.6654
x1 = 0.5504	0.5535	0.5951	0.6367	0.6546	0.6537	0.6451
x1 = 0.6006	0.533	0.5739	0.6142	0.6224	0.6178	0.6171
x1 = 0.6485	0.5103	0.5473	0.5801	0.5863	0.5829	0.5772
x1 = 0.6985	0.4761	0.5029	0.538	0.5354	0.5261	0.5272
x1 = 0.7508	0.4223	0.4558	0.4775	0.4711	0.4606	0.4622
x1 = 0.8	0.3659	0.3905	0.4065	0.3972	0.3881	0.3846
x1 = 0.8514	0.295	0.31	0.3246	0.3131	0.304	0.297
x1 = 0.899	0.2	0.218	0.236	0.216	0.224	0.211
x1 = 0.9485	0.115	0.111	0.133	0.119	0.124	0.116

CCOC(=O)CC(=O)OCC [diethyl 1,3-propanedioate] + CCCCCCC
excess molar enthalpy [kcal/mol]
Settings	288.15 K	298.15 K	313.15 K	328.15 K	338.15 K	348.15 K
x1 = 0.0503	–	–	–	0.0896	0.0877	0.0903
x1 = 0.0581	0.105	0.1	0.103	–	–	–
x1 = 0.1008	–	0.171	0.171	0.179	0.174	0.174
x1 = 0.1086	0.179	–	–	–	–	–
x1 = 0.1476	0.2254	0.232	0.238	0.2433	0.247	0.2424
x1 = 0.1984	0.2751	0.2921	0.3059	0.3133	0.3143	0.3074
x1 = 0.2495	0.3131	0.348	0.3619	0.3748	0.37	0.3647
x1 = 0.3007	0.3537	0.3867	0.413	0.4221	0.4283	0.4125
x1 = 0.3481	0.3659	0.4142	0.4436	0.4587	0.4529	0.4517
x1 = 0.3997	0.3786	0.4269	0.4622	0.4828	0.4842	0.4742
x1 = 0.4474	0.381	0.4338	0.4689	0.4883	0.4943	0.4876
x1 = 0.4993	0.3826	0.4348	0.472	0.4897	0.4971	0.4912
x1 = 0.5474	0.3815	0.4326	0.4656	0.4837	0.4909	0.4811
x1 = 0.5997	0.3755	0.4202	0.4515	0.467	0.478	0.4622
x1 = 0.6481	0.3626	0.4054	0.4331	0.4431	0.4503	0.4398
x1 = 0.7008	0.3466	0.374	0.3991	0.4128	0.4149	0.3999
x1 = 0.7495	0.3231	0.3446	0.3576	0.3693	0.3678	0.3609
x1 = 0.7985	0.2868	0.3002	0.3011	0.3222	0.3181	0.3105
x1 = 0.8476	0.237	0.2443	0.2459	0.254	0.257	0.246
x1 = 0.9009	0.167	0.167	0.165	0.18	0.178	0.17
x1 = 0.9504	0.0887	0.0891	0.0887	0.104	0.0939	0.0875
